Results published in patent publication US20230086702A1, “SUBSTITUTED 2-AMINO-PYRAZOLYL-[1,2,4]TRIAZOLO[1,5A]PYRIDINE DERIVATIVES AND USE THEREOF” (The Johns Hopkins University, priority 2019, published 2023).

Experiments:
[1] = tested on: retinal ganglion cells (RGCs); assay: Optic nerve crush, RGC survival (RBPMS staining); format: in vivo, C57B6/J animals; details: intravitreal injection of 8 mM, second injection 4 days later, two weeks after optic nerve crush, vs vehicle (FIG. 3)
Source text: Inhibition of DLK and LZK can reduce the neuronal injury response and result in the protection of various neuronal populations from degeneration. Cells can be immunostained for p-cJun S73 (p-JUN), which is an indicator of DLK pathway activation. Accordingly, decreased p-JUN staining compared to a control can be indicative of inhibition of DLK pathway activation. RBPMS can be used to mark retinal ganglion cells (RGCs) and show changes in cell survival (e.g., increased RBPMS staining compared to a control can indicate increased cell survival).
Unilateral optic nerve crush was performed on C57B6/J animals between 6 and 8 weeks of age, followed by intravitreal injection of 8 mM of I-106. A second injection was performed 4 days later. Two weeks after optic nerve crush, animals were sacrificed and retinas were immunostained for RBPMS. Confocal microscopy was used to image RGCs and ImageJ was used to quantify the density of RGCs.
Mice were intravitreally injected with 1 μL of vehicle (DMSO), 100 mM I-81, or 300 mM I-81 immediately following optic nerve crush injury. Retinas were extracted 1 month later and immunofluorescently labelled with anti-RBPMS to mark RGCs, anti-phosphorylated JUN (P-JUN) to examine DLK/JNK pathway induction, and Tuj1 to visualize axons (see FIG. 9).

LZK = biological target: T1, LZK (Homo sapiens, UniProt O43283); assay: LZK biochemical assay (TR-FRET, MKK7 phosphorylation); details: LZK catalytic domain, MKK7 substrate, 15 μM ATP
T1 construct: 10 nM LZK, catalytic domain, Carna Biosiences in assay buffer; purchased Carna Biosciences ('Carna Biosiences' [sic])
T1 sequence (O43283 168-409 limits assumed): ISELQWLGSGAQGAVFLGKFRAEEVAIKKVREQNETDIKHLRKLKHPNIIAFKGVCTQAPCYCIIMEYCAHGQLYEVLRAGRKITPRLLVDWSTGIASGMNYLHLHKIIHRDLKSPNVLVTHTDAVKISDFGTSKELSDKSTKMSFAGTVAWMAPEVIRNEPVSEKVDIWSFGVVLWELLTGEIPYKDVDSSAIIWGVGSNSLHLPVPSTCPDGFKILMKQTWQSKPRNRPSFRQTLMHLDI

DLK = biological target: T2, DLK (Homo sapiens, UniProt Q12852); assay: DLK biochemical assay (TR-FRET, MKK7 phosphorylation); details: DLK catalytic domain, MKK7 substrate, 60 μM ATP
T2 construct: 10 nM DLK, catalytic domain, Carna Biosiences; purchased Carna Biosciences ('Carna Biosiences' [sic])
T2 sequence (Q12852 125-366 limits assumed): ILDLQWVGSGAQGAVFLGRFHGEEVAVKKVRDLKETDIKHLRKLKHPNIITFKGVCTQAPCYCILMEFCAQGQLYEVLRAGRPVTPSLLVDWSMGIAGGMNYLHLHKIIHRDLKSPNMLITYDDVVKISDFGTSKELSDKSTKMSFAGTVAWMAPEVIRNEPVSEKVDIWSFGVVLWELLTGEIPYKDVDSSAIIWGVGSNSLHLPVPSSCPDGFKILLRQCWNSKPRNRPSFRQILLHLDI
Procedure, shortened: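 Human DLK activity measured as phosphorylation of His-tagged MKK7 at T275/S277, detected by TR-FRET between Eu-anti-phospho-MKK7 donor (excitation 340 nm) and XL665-anti-His acceptor (665 nm). Signal taken as the XL665/Eu ratio. Detection buffer: 25 mM Tris/HCl pH 7.5, 100 mM EDTA, 100 mM NaCl, 200 mM KF, 0.01% Tween 20.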

retina = assay: Retinal structure and function after intravitreal injection (optical coherence tomography, electroretinographs); format: in vivo, mice; details: 7 days following intravitreal injection of 10 mM, vs vehicle (DMSO) (FIG. 10, 11A, 11B)
Method: Optical coherence tomography images of mice 7 days following intravitreal injections of either vehicle (DMSO) or 10 mM I-81 were obtained (FIG. 10). Retinal electroretinographs were also acquired (FIGS. 11A and 11B).

hRGCs = assay: hRGC survival under rotenone or CCCP (Cell Titer Glo); format: cell-based, human; details: 1 uM rotenone or 30 uM CCCP, increasing doses, 72 hours (FIG. 4)
Method: (§1) H7 or H9 human embryonic stem cells or patient-derived induced pluripotent stem cells were modified to express mouse Thy1.2 and tdTomato from the BRN3B locus (Sluch et al., 2017). To produce RGCs, stem cells were dissociated to single cells and plated on Matrigel (Corning, USA) coated plates at a density of 52.6 K/cm^2 in mTeSR1 with […] blebbistatin, a time point designated as day minus 1 (d-1). One day after plating, mTeSR1 was completely exchanged for N2B27 media [1:1 mix of DMEM/F12 and Neurobasal with GlutaMAX Supplement, antibiotic-antimycotic, 1% N2 Supplement, and 2% B27 Supplement (all from ThermoFisher Scientific)] to start differentiation; this day was designated as day 0 (d0). Small molecules were added to the cells on day 1 (dl), 24 hours after d0. Small molecule addition was done in fresh N2B27 media. Cells were fed with a full exchange of N2B27 media every other day unless a small molecule was to be removed or added on that day of differentiation, requiring daily feeding. […] After 35 days in culture, when abundant RGCs have appeared (indicated by red fluorescence), cultures were dissociated into a single cell suspension. […]
hRGCs were challenged with (A) 1 uM rotenone or (B) 30 uM CCCP in the presence of increasing doses of I-84 for 72 hours. Cell survival was quantified using Cell Titer Glo, an ATP-based luminescent assay.

[2] = tested on: human stem cell derived RGCs; assay: Protection of human stem cell derived RGCs in models of mitochondrial injury (FIG. 4); format: cell-based
Method: as §1, with “d0.” for “d0. Small molecule addition was done in fresh N2B27 media. Cells were fed with a full exchange of N2B27 media every other day unless a small molecule was to be removed or added on that day of differentiation, requiring daily feeding.”
In order to test compounds, RGCs were plated in 96- or 384-well Nunclon or Falcon dishes. […] For both sets of RGCs, increasing doses of the kinase inhibitors was added at the time of injury and survival was quantitated after 72 hours using CellTiter-Glo (Promega, Madison) and measuring relative light units (RLU) or by staining cultures with conventional viability dyes (i.e. ethidium homodimer exclusion, calcein AM uptake) and measuring survival by automated image analysis.

| SMILES | survival of RGCs (density of RBPMS) [1] | IC50 (LZK) [nM] | IC50 (DLK) [nM] | structural or functional toxicity to the retina (retina) | cell survival of hRGCs (hRGCs) | protection of human stem cell derived RGCs [2] |
| --- | --- | --- | --- | --- | --- | --- |
| CC[C@H](C)NC(=O)c1cc(-c2cnn([C@H](c3ccc(C(F)(F)F)nc3)C(C)C)c2)cc2nc(N)nn12 (single isomer, unassigned) [Example I-106] | promoted survival of RGCs following optic nerve crush | 1.6 | 1 |  |  |  |
| CC[C@H](C)NC(=O)c1cc(-c2cnn([C@H](c3ccc(C(F)(F)F)nc3)C3CCN(C(=O)OC(C)(C)C)CC3)c2)cn2nc(N)nc12 [Example I-81, tert-Butyl 4-{(4-{2-amino-8-[(2S)-butan-2-ylcarbamoyl][1,2,4]triazolo[1,5-a]pyridin-6-yl}-1H-pyrazol-1-yl)[6-(trifluoromethyl)pyridin-3-yl]methyl}piperidine-1-carboxylate] |  | 8.5 | 6.6 | did not induce structural or functional toxicity to the retina |  |  |
| CC[C@H](C)NC(=O)c1cc(-c2cnn([C@H](c3ccc(C(F)(F)F)nc3)C3CCN(C(C)=O)CC3)c2)cn2nc(N)nc12 [Example I-84, 6-(1-{(1-Acetylpiperidin-4-yl)[6-(trifluoromethyl)pyridin-3-yl]methyl}-1H-pyrazol-4-yl)-2-amino-N-[(2S)-butan-2-yl][1,2,4]triazolo[1,5-a]pyridine-8-carboxamide] |  | 1.2 | 0.5 |  | protective to human stem cell derived RGCs in models of mitochondrial injury | protective |
| CC[C@H](C)NC(=O)c1cc(-c2cnn([C@H](c3ccc(C(F)F)nc3)C(C)C)c2)cc2nc(N)nn12 (single isomer, unassigned) [Example I-97] |  | 2.1 | 0.9 |  |  |  |
| CCC(c1ccc(OCC(F)(F)F)nc1)n1cc(-c2cc(C(=O)N[C@@H](C)CC)c3nc(N)nn3c2)cn1 (mixture of isomers) [Example I-85, 2-Amino-N-[(2S)-butan-2-yl]-6-(1-{1-[6-(2,2,2-trifluoroethoxy)pyridin-3-yl]propyl}-1H-pyrazol-4-yl)[1,2,4]triazolo[1,5-a]pyridine-8-carboxamide] |  | 38 | 4.7 |  |  |  |
| CC(C)C(c1cncc(Cl)c1)n1cc(-c2cc(C(=O)NC(C)(C)CO)c3nc(N)nn3c2)cn1 (racemic) [Example I-172, 2-Amino-6-{1-[1-(5-chloropyridin-3-yl)-2-methylpropyl]-1H-pyrazol-4-yl}-N-(1-hydroxy-2-methylpropan-2-yl)[1,2,4]triazolo[1,5-a]pyridine-8-carboxamide] |  | 76 | 4 |  |  |  |
| CC[C@H](C)NC(=O)c1cc(-c2cnn(C(c3ccc(C(F)(F)F)nc3)C(C)C)c2)cn2nc(N)nc12 (single isomer, unassigned) [Example I-74] |  | 16 | 10 |  |  |  |
| CCC(c1cncc(Cl)c1)n1cc(-c2cc(C(=O)N[C@@H](C)CC)c3nc(N)nn3c2)cn1 (mixture of isomers) [Example I-58, 2-Amino-N-[(2S)-butan-2-yl]-6-{1-[1-(5-chloropyridin-3-yl)propyl]-1H-pyrazol-4-yl}[1,2,4]triazolo[1,5-a]pyridine-8-carboxamide] |  | 16 | 1.6 |  |  |  |
| CCC(c1ccc(C(F)F)nc1)n1cc(-c2cc(C(=O)N[C@@H](C)CC)c3nc(N)nn3c2)cn1 (single isomer, unassigned) [Example I-65] |  | 33 | 25 |  |  |  |
| CC[C@H](c1ccc(C(F)(F)F)nc1)n1cc(-c2cc(C(=O)N[C@@H](C)CC)c3nc(N)nn3c2)cn1 (single isomer, unassigned) [Example I-72] |  | 16 | 10 |  |  |  |
| CC[C@H](C)NC(=O)c1cc(-c2cnn(C3CCN(C(C)C)CC3)c2)cn2nc(N)nc12 (single isomer, unassigned) [Example I-7] |  | 3.8 | 32 |  |  |  |
| C[C@@H](CF)NC(=O)c1cc(-c2cnn(C3CCOc4ccccc43)c2)cn2nc(N)nc12 (mixture of isomers) [Example I-143, 2-Amino-6-{1-[3,4-dihydro-2H-1-benzopyran-4-yl]-1H-pyrazol-4-yl}-N-[1-fluoropropan-2-yl][1,2,4]triazolo[1,5-a]pyridine-8-carboxamide] |  | 15 | 33 |  |  |  |
| CC[C@H](C)NC(=O)c1cc(-c2cnn(C3CCN(CC4COC4)CC3)c2)cn2nc(N)nc12 (single isomer, unassigned) [Example I-9] |  | 6.9 | 80 |  |  |  |
